Key:
Conditions in all cases: 72 h
Caco-2 [1] = experiment: cell viability relative to DMSO; higher = less toxic
Calu-3 [2] = experiment: as above
HepG2 [3] = experiment: as above
U2OS [4] = experiment: as above
Vero E6 [5] = experiment: as above
Caco-2 [6] = experiment: relative viability EC50 (midpoint between 100% and the lowest measured viability); higher = less toxic
Calu-3 [7] = experiment: as above
HepG2 [8] = experiment: as above
U2OS [9] = experiment: as above
Vero E6 [10] = experiment: as above
Caco-2 [11] = experiment: drug sensitivity score (DSS) for viability; higher = more toxic; extreme values may be limits of the assay
Calu-3 [12] = experiment: as above
HepG2 [13] = experiment: as above
U2OS [14] = experiment: as above
Vero E6 [15] = experiment: as above

SMILES	cell viability (Caco-2 [1]; 1 nM) [%]	cell viability (Caco-2 [1]; 10 nM) [%]	cell viability (Caco-2 [1]; 100 nM) [%]	cell viability (Caco-2 [1]; 1000 nM) [%]	cell viability (Caco-2 [1]; 10000 nM) [%]	cell viability (Calu-3 [2]; 1 nM) [%]	cell viability (Calu-3 [2]; 10 nM) [%]	cell viability (Calu-3 [2]; 100 nM) [%]	cell viability (Calu-3 [2]; 1000 nM) [%]	cell viability (Calu-3 [2]; 10000 nM) [%]	cell viability (HepG2 [3]; 1 nM) [%]	cell viability (HepG2 [3]; 10 nM) [%]	cell viability (HepG2 [3]; 100 nM) [%]	cell viability (HepG2 [3]; 1000 nM) [%]	cell viability (HepG2 [3]; 10000 nM) [%]	cell viability (U2OS [4]; 1 nM) [%]	cell viability (U2OS [4]; 10 nM) [%]	cell viability (U2OS [4]; 100 nM) [%]	cell viability (U2OS [4]; 1000 nM) [%]	cell viability (U2OS [4]; 10000 nM) [%]	cell viability (Vero E6 [5]; 1 nM) [%]	cell viability (Vero E6 [5]; 10 nM) [%]	cell viability (Vero E6 [5]; 100 nM) [%]	cell viability (Vero E6 [5]; 1000 nM) [%]	cell viability (Vero E6 [5]; 10000 nM) [%]	relative viability EC50 (Caco-2 [6]) [µM]	relative viability EC50 (Calu-3 [7]) [µM]	relative viability EC50 (HepG2 [8]) [µM]	relative viability EC50 (U2OS [9]) [µM]	relative viability EC50 (Vero E6 [10]) [µM]	drug sensitivity score (Caco-2 [11])	drug sensitivity score (Calu-3 [12])	drug sensitivity score (HepG2 [13])	drug sensitivity score (U2OS [14])	drug sensitivity score (Vero E6 [15])
Cc1nc2c(c(=O)[nH]1)CSCC2 [DR-2313]	92.6	88.9	90.1	95.7	97.4	105	92.2	95	95.5	91.9	99.8	101	98.3	108	94.6	102	99.1	99.9	97.1	99.1	98	100	97.8	94.6	108	> 10	> 10	> 10	> 10	> 10	0	0	0	0	0
Cn1c2cc([S+](C)[O-])sc2c2cnn(Cc3cccc(N)c3)c(=O)c21 (stereo not given) [TEPP-46]	98.7	98.3	92.7	98.1	89	104	97.6	96.7	94.7	94.7	119	103	111	98.5	102	98.3	97.1	97.8	100	98.7	103	97.4	106	96.3	91.9	> 10	> 10	> 10	> 10	> 10	0	0	0	0	0
COc1ccc(C(=O)NCc2cccnc2)cc1C(=O)NCc1cccnc1 [picotamide]	101	87.9	87	120	98.6	97.3	97.8	103	102	111	102	99.5	120	119	97	97.9	95	92.8	101	105	99.7	101	109	98.7	103	> 10	> 10	> 10	> 10	> 10	0	0	0	0	0
O=C(O)CCC/C=C\C[C@@H]1[C@@H](/C=C/[C@@H](O)COc2cccc(Cl)c2)[C@H](O)C[C@@H]1O (racemic) [cloprostenol-(+/-)]	100	104	96.1	97.7	92.3	110	108	106	95.5	100	98.2	106	104	103	104	103	106	99.9	102	97.6	99.1	103	105	102	102	> 10	> 10	> 10	> 10	> 10	0	0	0	0	0
COc1cc(Cc2cnc(N)nc2N)cc(OC)c1OC [trimethoprim]	114	113	119	103	90.1	103	89.6	107	110	113	82.4	102	106	89.8	97.6	92.3	98.4	96	99.6	105	99.8	91.4	100	94.4	96.4	> 10	> 10	> 10	> 10	> 10	0	0	0	0	0
CN1Cc2c(N)cccc2C(c2ccccc2)C1 (stereo not given) [nomifensine]	97.1	95	98	94.6	103	104	98.2	100	106	96.8	106	110	93.5	103	97.3	101	100	102	101	96.3	97.9	96.8	94.2	99.4	110	> 10	> 10	> 10	> 10	> 10	0	0	0	0	0
CC(CCc1ccc(O)cc1)NCCc1ccc(O)c(O)c1 (stereo not given) [dobutamine]	106	99.2	99.3	95	104	90.2	79.6	92.8	96.9	105	106	110	93.1	96.7	93.3	101	96.6	97.7	102	98	106	103	97.1	98.5	103	> 10	> 10	> 10	> 10	> 10	0	0	0	0	0
CC(C)CCNc1ncccc1C(=O)N1CCN(Cc2ccccc2)CC1 [NSI-189]	96.8	97.8	100	92.9	106	96.3	108	92.5	92.7	115	108	91.5	102	91.2	103	97.5	98	95.5	97.8	99.3	96.5	95.7	94.9	93.3	104	> 10	> 10	> 10	> 10	> 10	0	0	0	0	0
CCCCc1nc(-c2ccc(OCCCN(CC)CC)cc2)cn1-c1ccc(Oc2ccc(Cl)cc2)cc1 [azeliragon]	101	97	99.4	93.5	4.5	109	105	99.4	98.9	8.5	95.1	94.8	90.2	94	0.1	97.7	97.8	98.9	91	30.4	96.2	105	91.8	99.5	0	2.61	3.08	2.69	2.12	3.13	6.3	5.2	6.4	5.3	5.7
COc1cc(NC(=O)c2cccc(-n3cc(NC(=O)Nc4cccc(C)c4)cn3)c2)cc(OC)c1OC [SR-3576]	104	105	101	85.2	87.7	91.1	93.9	93.4	93.1	81	98.3	99.4	94.1	95.3	99.4	100	102	100	99.6	91.1	101	102	97.2	96.6	95.9	> 10	> 10	> 10	> 10	> 10	1.3	0.6	0	0	0
CCOc1ccc(NC(C)=O)cc1 [phenacetin]	105	81.8	101	110	85.9	90.3	90.8	99.5	94.3	104	95.8	77.6	90.8	93.7	84.1	100	94.6	90.2	90.3	97.8	109	102	108	96	102	> 10	> 10	> 10	> 10	> 10	0.1	0	0	0	0
C[C@H](c1ccc(F)cc1CCCC(=O)O)N(c1cc(F)ccc1F)S(=O)(=O)c1ccc(Cl)cc1	101	97.5	112	92.6	89.5	105	98.9	99.4	103	103	93.1	103	94	98.8	93.6	101	93.5	97.8	93.1	96.2	103	100	102	103	98.8	> 10	> 10	> 10	> 10	> 10	0.1	0	0	0	0
CCN(CC)CCNC(=O)COc1ccc(OC)cc1 [mefexamide]	93	98.3	81.7	81.9	102	108	106	109	106	98.5	114	73.9	92.7	114	119	97.9	99.3	104	98	102	95.1	106	95.4	96.8	108	> 10	> 10	> 10	> 10	> 10	0.1	0	0	0	0
Nc1ncnc2c1c(-c1cnc3[nH]ccc3c1)nn2C1CCCC1 [PP-121]	105	100	90.5	43.6	13.1	98	100	85.7	33.4	15.3	121	106	104	58.3	11.4	104	98.5	97	48	1.6	99.5	104	102	73.7	9.3	0.596	0.355	1.05	0.933	1.43	12.1	14.2	10.2	11.6	8.9

Reference: the supplement of paper PMC13380429
